Key:
P38 = experiment: Immunoblot of HSP27 phosphorylation with P38 inhibitor; type: cell-based, human; conditions: MDA-231 cells, 2 μM and 10 μM, 1 hour pretreatment
MDA-231 cells = experiment: Combination with cisplatin, Combination Index (Chou and Talalay); type: cell-based, human; conditions: cisplatin line of Table 8
Procedure: To determine if these concentrations of ST-362 can enhance the efficacy of low doses of cisplatin, MDA-231 cells were treated with varying concentrations of cisplatin in the presence of ST-362 IC50 and IC20 concentrations. The combination of ST-362 with low doses of cisplatin ranging for 0.01 to 0.1 μM produced a greater effect than each of the drugs alone (FIG. 20).

[1] = test system: cancer derived cell lines; experiment: XTT viability assay, all cell lines tested; type: cell-based, human; conditions: span over the cell lines
Procedure: MCF-10A cells were used as non-tumorigenic line and various cell lines derived from other types of solid tumors were compiled including colon (HCT116, HT29, SW480), prostate (PC3, DU145, LNCaP), lung (A549), osteosarcoma (U20S) and Melanoma (T11) cell lines. A non-adherent leukemic cancer cell line, K562, was also included to further diversify the cohort (FIG. 7).
(§1) Viability was assayed after 3 days (XTT, ATCC). IC50 concentrations are indicated (Table 3 above).

MCF-7 = experiment: XTT viability assay; type: cell-based, human; conditions: MCF-7, 3 days
Procedure: as §1

PC3 = experiment: XTT viability assay; type: cell-based, human; conditions: PC3, 3 days
Procedure: as §1

K562 = experiment: XTT viability assay; type: cell-based, human; conditions: K562, 3 days
Procedure: as §1

SW480 = experiment: XTT viability assay; type: cell-based, human; conditions: SW480, 3 days
Procedure: as §1

DU145 = experiment: XTT viability assay; type: cell-based, human; conditions: DU145, 3 days
Procedure: as §1

LNCaP = experiment: XTT viability assay; type: cell-based, human; conditions: 3 days
Procedure: as §1

MDA-MB-231 = experiment: XTT viability assay; type: cell-based, human; conditions: MDA-MB-231, 3 days
Procedure: as §1

U20S = experiment: XTT viability assay; type: cell-based, human; conditions: 3 days
Procedure: as §1

MDA-MB-436 = experiment: XTT viability assay; type: cell-based, human; conditions: MDA-MB-436, 3 days
Procedure: as §1

T47D = experiment: XTT viability assay; type: cell-based, human; conditions: 3 days
Procedure: as §1

HCT116 = experiment: XTT viability assay; type: cell-based, human; conditions: HCT116, 3 days
Procedure: as §1

HT-29 = experiment: XTT viability assay; type: cell-based, human; conditions: HT-29, 3 days
Procedure: as §1

MCF10A = conditions: 3 days
Procedure: Results are presented as Average±SD of replicate analyses and are either representative of, or inclusive of at least two independent experiments. Statistical analyses were performed using student's t-test (2-tailed, paired) versus vehicle controls and are regarded as being significant when P<0.05(*). Higher powers (p<0.01, p<0.001) are also employed and indicated in each figure legend. IC50 doses for strigolactone analogs were calculated by interpolation of the sigmoidal dose response curves (Graphpad Prism 4.0 software). Briefly, linear regression was performed between relevant y-axis data points and interpolation calculated for x-axis unknowns.
Cells were seeded into a 96 well plates at 1500 cells per well (MCF-10, PC3, DU145, MDA-MB-231, MDA-MB-436, HT-29, SW480), 1000 cells per well (K562) or 4000 cells per well (MCF-7, HCT116) in triplicate in normal growing media (with the exception of K562, a non-adherent leukemic cell line which was seeded in phenol-free DMEM supplemented with 10% charcoal-stripped FBS). The following day media was replaced with phenol-free DMEM supplemented with 10% charcoal stripped FBS and the indicated final concentrations of strigolactone analog or vehicle (acetone) alone. Cells were incubated for 3 days, at which time XTT (2,3,-bis(2-methoxy-4-nitro-5-sulfophenyl)-5-[(phenylamino)-carbonyl]-2H-tetrazolium inner salt) reduction was used to quantify viability according to manufacturer's instruction (ATCC). Cells were incubated with XTT reagent for 2-3 hours at 37° C. in a humidified 5% CO2-95% air atmosphere. Absorbance was recorded by a photometer [sequence]luor Plus, Tecan (Salzburg, Austria) at 450 nm with 750 nm of reference wavelength. Cell survival was estimated from the equation: % cell survival=100×(At−Ac), where At and Ac are the absorbencies (450 nm) of the XTT colorimetric reaction (ATCC) in treated and control cultures respectively minus non-specific absorption measured at 750 nm. Absorbance of medium alone was also deducted from specific readings.
MCF-10A cells were included as an example of a non-tumorigenic line. XTT viability assays were carried out in the presence of the indicated doses of strigolactone analogs following 3 days of treatment. Resulting differences in absorbance readings following strigolactone analogs treatment reflect changes in proliferation and cell survival (FIG. 7A-C): Cells were seeded into 96 well plates in normal growing media. The following day media was replaced with phenol-free DMEM supplemented with 10% charcoal-stripped serum and the indicated doses of strigolactone analog or vehicle (cont.) alone. Viability was assayed after 3 days (XTT, ATCC).

MCF-7 mammospheres [2] = experiment: Mammosphere formation; type: cell-based, human; conditions: 5 ppm and above
Procedure: Adherent cells were gently trypsinized, (0.05% trypsin/EDTA) washed twice in PBS and filtered through a […] cell sieve to obtain a single cell suspensions. Cells were diluted to a concentration of 10,000 cell/ml in serum-free phenol-red free MEBM (MEGM Bulletkit, Lonza) supplemented with 5 μg/ml bovine insulin, 20 ng/ml recombinant epidermal growth factor, 20 ng/ml basic fibroblast growth factor (Gibco), 1×B27 supplement, 0.5 μg/ml hydrocortisone (MEGM Bulletkit, Lonza). For MDA-MB-231 mammosphere cultures serum-free phenol red-free CnT-27 medium with growth additives (CellnTEC Advanced cell systems, Bern, Switzerland) was used as previously described. 0.1 ml was seeded per well of a Ultralow attachment 96 well plates. The following day the indicated doses of GR-24 (ppm) or vehicle alone (0.6% acetone f/c) were added. Media was replenished every 3-4 days. Self-renewal capacity of the mammospheres was determined by re-plating and producing further generations of mammospheres. Secondary mammospheres were cultivated by dissociation (trypsinization with gently vortexing) of 10-14 day old primary mammospheres. Single cell suspensions were obtained as described above.
(§2) Given the similar effects the other strigolactone analogs had on breast cancer cell line growth compared to GR-24, we anticipated that the strigolactone analogs would also have similar effects on MCF-7 primary mammosphere formation (FIG. 10): MCF-7 cells were seeded in MEBM media into low attachment, 96 well plates in duplicate at 3000 cells per well. The same day the indicated doses of strigolactone analogs were added. After 7 days representative images were taken. […] Like GR-24, the doses required to inhibit mammosphere formation are lower than that required to inhibit proliferation in monolayer cultures (5 fold lower; ST-362 and MEB-55, 3 fold lower; ST-357). To determine if the sensitivity to strigolactone analogs treatments was specific to mammosphere formation or whether it extended to the integrity and survival of mature mammospheres, MCF-7 mammospheres were grown in the absence of strigolactone analogs and after 7 days (or once mammospheres had reached a mean diameter of over […]), strigolactone analogs were added to the growth media (FIG. 10) at the indicated doses. MCF-7 cells were seeded in MEBM media into low attachment, 96 well plates in duplicate at 3000 cells per well and primary mammospheres left to grow for 7 days. At which time the indicated doses of strigolactone analogs were added to the media. FIG. 11A is a representative image of mammospheres treated with 5 ppm concentrations, showing dissociation after 2 days of exposure to strigolactone analogs. […] Following […] treatment, mammospheres were monitored visually after 24 and 48 hours. No changes were observed following 24 hours of strigolactone analogs treatment. […] At 5 ppm concentrations EG-5, EG-9C, ST-357, ST-362 and MEB-55 reduce mammosphere numbers from 86.7+6.8 (vehicle control) to 23+5, 38+6.2, 6+2, 8.3+3.5 and 9.3+1.5%, respectively. At 2.5 ppm concentrations, mammosphere numbers were reduced to 35+6.9 (EG-5), 52+12.3 (EG-9C), 22+8.5 (ST-357), 6+1.7 (ST-362) and 20.7+8.6 (MEB-55). […] XTT viability assays were also carried out on dissociated mammospheres. At concentrations of 5 ppm, EG-5, ST-362 and MEB-55 reduced viability to 3.7+0.5, 25.5+8.8 and 4.6+1.1% respectively.

MCF-7 mammospheres [3] = experiment: cells; type: cell-based, human; conditions: for Mammosphere numbers (>100 μM), percentage of vehicle treated control: 5 days
Procedure: as §2

HCT116 cells = experiment: Annexin V / PI staining; type: cell-based, human; conditions: 48 hours, from 3.6%
Procedure: Cells were cultured for 48 hours under the same conditions as those used for the DNA content/cell cycle analysis. All the cells were collected and resuspended in 100 μl 1× Annexin V Binding Buffer (BD Biosciences, San Jose, Calif., USA). 2 μl FITC-Annexin V (BD Biosciences) was added and incubated for 10 min in the dark (room temperature). Cells were then stained with PI (Sigma, Saint Louis, Mo., USA) to a final concentration of 5 μg/ml and the cells were incubated at room temperature for 15 min in the dark. Then, 400 μl of Annexin V binding buffer were added and flow cytometry was performed using a BD FACSCalibur flow cytometer. Cells were considered to be apoptotic if they were Annexin V+/PI− (early apoptotic) and Annexin V+/PI+ (late apoptotic). Each analysis was performed using at least 20,000 events.
Chromosome condensation at mitosis is accompanied by phosphorylation of histone H3. Accordingly, in order to determine if cells were arresting at G2 or M phase, HCT116 cells were analyzed for pS10 Histone H3 following strigolactone analogs exposure. […] To further quantify whether the growth inhibition observed in-vitro following strigolactone treatment was due in part to apoptosis, HCT116 cells were dual stained with Annexin V and PI (Prodidium Iodide). Annexin V staining indicate the inversion of the inner leaflet of the plasma membrane an early event of apoptosis. Late apoptosis is characterized by loss of membrane integrity and cells become permeable to PI. […] Cells were incubated for 48 hours and then co-stained with annexin-V and PI (FIG. 12F). Following treatment with 10 ppm and 15 ppm MEB-55, the percentage of late apoptotic cell increased from 3.6% to 62% and 85% respectively (FIG. 12F, lower panel). […] Dual Annexin V/PI staining analysis was also carried out on two other colon cancer cell lines, (SW480, HT29) following strigolactone treatment. Increased apoptosis was also observed in these lines following MEB-55 treatment in a dose dependent manner (FIG. 12D).

C[S+]([O-])c1ccc(-c2nc(-c3ccncc3)c(-c3ccc(F)cc3)[nH]2)cc1 (stereo not shown) [SB203580]
HSP27 phosphorylation induced by ST-362 and MEB-55 (P38): sufficient to inhibit HSP27 phosphorylation

N.N.[Cl][Pt][Cl] [Cisplatin, cisplatin]
CI (MDA-231 cells): 0.8

CC1=CC(O/C=C2\Cc3c(n(C)c4ccc(-c5ccc(N(C)C)cc5)cc34)C2=O)OC1=O (racemic) [EG-9c, (±) (2E)-4-methyl-2-(4-methyl-5-oxo-2,5-dihydrofuran-2-yloxymethylene)-7-[(4-dimethylamino)-phenyl]-1,4-dihydro-2H-cyclopenta[b]indol-3-one]
IC50 concentration over all cell lines tested [1]: 10-15 ppm | IC50 at 72 h (MCF-7): 17.3 ppm | IC50 at 72 h (PC3): >15 ppm | IC50 at 72 h (K562): >15 ppm | IC50 at 72 h (SW480): >15 ppm | IC50 at 72 h (DU145): 15 ppm | IC50 at 72 h (LNCaP): >20 ppm | IC50 at 72 h (MDA-MB-231): >10 ppm | IC50 at 72 h (U20S): 4.5 ppm | IC50 at 72 h (MDA-MB-436): >10 ppm | IC50 at 72 h (T47D): >10 ppm | IC50 at 72 h (HCT116): >15 ppm | IC50 at 72 h (HT-29): >15 ppm | IC50 at 72 h (MCF10A): >15 ppm | Mammosphere formation (MCF-7 mammospheres [2]): completely block mammosphere formation | Mammosphere morphology (MCF-7 mammospheres [3]; 2.5-5 ppm, after 48 hours): less dramatic morphological change | Mammosphere numbers (>100 μM), percentage of vehicle treated control (MCF-7 mammospheres [3]; 2.5 ppm): 52+12.3% | Mammosphere numbers (>100 μM), percentage of vehicle treated control (MCF-7 mammospheres [3]; 5 ppm, vehicle control 86.7+6.8): 38+6.2% | Percentage of late apoptotic cells (Annexin V+/PI+) (HCT116 cells; 10 ppm): 12.5% | Percentage of late apoptotic cells (Annexin V+/PI+) (HCT116 cells; 15 ppm): 43.3%

Source: patent US10208007B2, “Use of strigolactones and strigolactone analogs for treating proliferative conditions” (The State of Israel, Ministry of Agriculture & Rural …, priority 2011, dated 2019)
